The results in this text go back to publication PMC5011342, “A high throughput drug screening assay to identify compounds that promote oligodendrocyte differentiation using acutely dissociated and purified oligodendrocyte precursor cells” (BMC Research Notes, 2016).

Series [1] relates to acutely dissociated and purified rat OPCs. As to the kind of experiment: Acute OL differentiation assay (MBP expression/cell, immunofluorescent image quantification). The format is cell-based. As to conditions: sheet "All OLga data"; for activation at 2 µM / activation at 10 µM / activation at 0.08 µM / activation at 0.4 µM: Rattus norvegicus. The gist of the method:
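This acute differentiation assay used purified rat OPCs from postnatal day 6–7 pups, seeded into PDL/laminin-coated 96-well plates in differentiation medium lacking PDGF and FGF. Compounds were applied in quadruplicate after a 1–2 h preincubation at 37 °C, 10 % CO2, with 0.1 % DMSO negative and 40 ng/ml T3 positive controls in eight wells. After fixation on DIV4, anti-MBP immunofluorescence images yielded MBP expression/cell.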

Another series concerns expanded OPCs. Description: cells. The following applies: for viability at 0.1 µM / viability at 1 µM / viability at 10 µM: Rattus norvegicus, 72 h. In outline: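 Toxicity screen: compounds added at 0.1, 1 and 10 µM to PDGF-AA-expanded OPCs in 96-well plates, 3-day incubation at 37 °C, 10% CO2, then alamarBlue 1:10 for 4 h with fluorescence readout. Results set screening doses of 10/2, 2/0.4 or 0.4/0.08 µM.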

Setting [2] is: 2 uM test compound, relative to quetiapine, read-out: OL differentiation, 2 uM (% Quet).
Setting [3] is: 10 uM test compound, relative to quetiapine, read-out: OL differentiation, 10 uM (% Quet).
Setting [4] is: read-out: 0.1 µM (% DMSO), alamarBlue viability of expanded OPCs, compound at 0.1 µM, sheet All Tox data.
Where [5] appears, read: read-out: 1 µM (% DMSO), alamarBlue viability of expanded OPCs, compound at 1 µM, sheet All Tox data.
Setting [6] is: read-out: 10 µM (% DMSO), alamarBlue viability of expanded OPCs, compound at 10 µM, sheet All Tox data.
Setting [7] is: test compound at 2 uM, NCC library screen, relative to quetiapine, read-out: 2 uM (% Quet).
Where [8] appears, read: test compound at 10 uM, NCC library screen, relative to quetiapine, read-out: 10 uM (% Quet).
[9] abbreviates: alamarBlue viability of expanded OPCs, compound at 0.1 µM, relative to DMSO control.
Where [10] appears, read: alamarBlue viability of expanded OPCs, compound at 1 µM, relative to DMSO control.
Where [11] appears, read: alamarBlue viability of expanded OPCs, compound at 10 µM, relative to DMSO control.
[12] abbreviates: read-out: 0.1 µM (% DMSO), alamarBlue viability, NCC library compound at 0.1 µM, sheet "All Tox data".
Setting [13] is: read-out: 1 µM (% DMSO), alamarBlue viability, NCC library compound at 1 µM, sheet "All Tox data".
The mark [14] stands for this setting: read-out: 10 µM (% DMSO), alamarBlue viability, NCC library compound at 10 µM, sheet "All Tox data".
[15] abbreviates: test compound at 2 uM, MBP expression relative to quetiapine, NCC library screen, read-out: 2 uM (% Quet).
Setting [16] is: test compound at 10 uM, MBP expression relative to quetiapine, NCC library screen, read-out: 10 uM (% Quet).

Molecules are shown by their SMILES. Read-outs that look alike come from different tables or passages of the source.

For the molecule `OCCN1C[C@H](O)[C@@H](O)[C@H](O)[C@H]1CO` [Miglitol], the activation at 2 µM in series [1] (setting [2]) is 13.5%. For the same molecule, the activation at 10 µM in series [1] (setting [3]) is -3.3%. In addition, the viability at 0.1 µM in the series with expanded OPCs (setting [4]) worked out at 90.6%. Also, in the series with expanded OPCs (setting [5]), the viability at 1 µM was determined as 92.6%. The viability at 10 µM in the series with expanded OPCs (setting [6]) was 90.3%.

With `CC(C)C(=O)Nc1ccc([N+](=O)[O-])c(C(F)(F)F)c1` [Flutamide], the activation at 2 µM in series [1] (setting [7]) came out at 2.7%. The activation at 10 µM in series [1] (setting [8]) is -38.5%. The “0.1 µM (% DMSO)” value in the series with expanded OPCs (setting [9]) is recorded as 88.5 % DMSO. Moreover, the “1 µM (% DMSO)” value in the series with expanded OPCs (setting [10]) is given as 91.4 % DMSO. The “10 µM (% DMSO)” value in the series with expanded OPCs (setting [11]) came to 103.8 % DMSO.

`CO[C@@]1(NC(=O)Cc2cccs2)C(=O)N2C(C(=O)O)=C(COC(N)=O)CS[C@@H]21` [Cefoxitin]: the activation at 2 µM in series [1] (setting [7]) was determined as 4.1%. The activation at 10 µM in series [1] (setting [8]) worked out at 0.14%. The “0.1 µM (% DMSO)” value in the series with expanded OPCs (setting [9]) is 88.0 % DMSO. Also, the “1 µM (% DMSO)” value in the series with expanded OPCs (setting [10]) came to 88.0 % DMSO. In addition, in the series on expanded OPCs (setting [11]), the “10 µM (% DMSO)” value is listed as 85.5 % DMSO.

`CCCN(CCC)S(=O)(=O)c1ccc(C(=O)O)cc1` [Probenecid]: the activation at 2 µM in series [1] (setting [7]) was determined as 1.7%. Further, in series [1] (setting [8]), the activation at 10 µM was -6.4%. The viability at 0.1 µM with expanded OPCs (setting [12]) was 89.6%. The viability at 1 µM with expanded OPCs (setting [13]) came out at 94.3%. Besides, in the series with expanded OPCs (setting [14]), the viability at 10 µM came to 91.5%.

With `Fc1ccc([C@@H]2CCNC[C@H]2COc2ccc3c(c2)OCO3)cc1` [Paroxetine], the activation at 0.08 µM in series [1] (0.08 uM test compound, relative to quetiapine, read-out: OL differentiation, 0.08 uM (% Quet)) is 16.2%; in series [1] (test compound at 0.08 uM, MBP expression relative to quetiapine, NCC library screen, read-out: 0.08 uM (% Quet)) it was -4.5%. In addition, the activation at 0.4 µM was -6.1% in series [1] (0.4 uM test compound, relative to quetiapine, read-out: OL differentiation, 0.4 uM (% Quet)) and -15.9% in series [1] (test compound at 0.4 uM, MBP expression relative to quetiapine, NCC library screen, read-out: 0.4 uM (% Quet)). Further, in the series on expanded OPCs (setting [4]), the viability at 0.1 µM was 70.7%. In addition, in the series with expanded OPCs (setting [5]), the viability at 1 µM is 38.3%. Moreover, the viability at 10 µM in the series on expanded OPCs (setting [6]) amounted to 11.7%. Also, the “0.1 µM (% DMSO)” value in the series on expanded OPCs (setting [9]) is listed as 63.3 % DMSO. The “1 µM (% DMSO)” value in the series with expanded OPCs (setting [10]) is given as 27.9 % DMSO. The “10 µM (% DMSO)” value with expanded OPCs (setting [11]) was determined as 8.3 % DMSO.

In the case of `C[C@]12CCC(=O)C=C1CC[C@@H]1[C@@H]2[C@@H](O)C[C@@]2(C)[C@H]1CC[C@]2(O)C(=O)COC(=O)CCC(=O)O` [Cortisol succinate], the “2 uM (% Quet)” value in series [1] (test compound at 2 uM, NCC library screen, relative to quetiapine) stood at 3.6 % Quet. Further, the “10 uM (% Quet)” value in series [1] (test compound at 10 uM, NCC library screen, relative to quetiapine) worked out at 21.7 % Quet. Also, in the series with expanded OPCs (alamarBlue viability, NCC library compound at 0.1 µM, sheet "All Tox data"), the “0.1 µM (% DMSO)” value turned out to be 123.4 % DMSO. The “1 µM (% DMSO)” value with expanded OPCs (alamarBlue viability, NCC library compound at 1 µM, sheet "All Tox data") is on record as 127.0 % DMSO. Also, the “10 µM (% DMSO)” value with expanded OPCs (alamarBlue viability, NCC library compound at 10 µM, sheet "All Tox data") is recorded as 132.7 % DMSO.

`Nc1nc2c(ncn2COCCO)c(=O)[nH]1` [Acyclovir]: the activation at 2 µM in series [1] (setting [15]) was 21.2%. For the same molecule, the activation at 10 µM in series [1] (setting [16]) was 4.3%. The “0.1 µM (% DMSO)” value with expanded OPCs (setting [9]) worked out at 98.2 % DMSO. In the series on expanded OPCs (setting [10]), the “1 µM (% DMSO)” value is recorded as 90.8 % DMSO. In the series with expanded OPCs (setting [11]), the “10 µM (% DMSO)” value is on record as 91.7 % DMSO.

Regarding `CN1CCN(C2=Nc3cc(F)ccc3Cc3ccccc32)CC1` [Fluperlapine], the activation at 0.4 µM in series [1] (test compound at 0.4 uM, NCC library screen, relative to quetiapine, read-out: 0.4 uM (% Quet)) was -10.3%. Moreover, in series [1] (setting [7]), the activation at 2 µM is -16.2%. Moreover, in the series with expanded OPCs (setting [12]), the viability at 0.1 µM was determined as 78.1%. For the same molecule, in the series with expanded OPCs (setting [13]), the viability at 1 µM stood at 64.8%. The viability at 10 µM in the series with expanded OPCs (setting [14]) came out at 32.2%.

For the molecule `C[C@H]1COc2c(C3(N)CC3)c(F)cc3c(=O)c(C(=O)O)cn1c23` [Pazufloxacin], the activation at 2 µM in series [1] (setting [2]) worked out at 1.9%. The activation at 10 µM in series [1] (setting [3]) was -11%. Moreover, the viability at 0.1 µM with expanded OPCs (setting [4]) was found to be 95.3%. In addition, in the series with expanded OPCs (setting [5]), the viability at 1 µM was 98%. The viability at 10 µM in the series on expanded OPCs (setting [6]) worked out at 104%.

For the molecule `CC1(C)S[C@@H]2[C@H](NC(=O)[C@H](N)c3ccc(O)cc3)C(=O)N2[C@H]1C(=O)O` [Amoxicillin], in series [1] (setting [15]), the activation at 2 µM came out at 17.9%. In addition, the activation at 10 µM in series [1] (setting [16]) is -7%. For the same molecule, in the series on expanded OPCs (setting [9]), the “0.1 µM (% DMSO)” value was 93.8 % DMSO. Also, in the series on expanded OPCs (setting [10]), the “1 µM (% DMSO)” value worked out at 104.4 % DMSO. For the same molecule, in the series on expanded OPCs (setting [11]), the “10 µM (% DMSO)” value was 96.1 % DMSO.

Regarding `CN(C)c1nc(N(C)C)nc(N(C)C)n1` [Altretamine], the activation at 2 µM in series [1] (setting [7]) was -1.1%. In addition, in series [1] (setting [8]), the activation at 10 µM is -13.9%. Further, in the series on expanded OPCs (setting [12]), the viability at 0.1 µM was 94.2%. Besides, the viability at 1 µM in the series on expanded OPCs (setting [13]) is 87.4%. Moreover, in the series with expanded OPCs (setting [14]), the viability at 10 µM turned out to be 85%.
